# Measured values reported in patent US20260207578A1, “COMPOUND BASED ON SULFUR/OXYGEN SUBSTITUTED GLUTARIMIDE-BASED ISOINDOLINONE SKELETON AND USE THEREOF” (Gluetacs Therapeutics (Shanghai) Co., LTD., priority 2022, published 2026).
# Columns and labels:
# [1] = target: T1, human Cereblon WT GST-tagged protein (Homo sapiens, UniProt Q96SW2); test: CRBN-binding affinity, HTRF (CEREBLON BINDING kit); details: displacement of Thalidomide-Re reagent, 3 hours at room temperature
# T1 construct: purchased CISBIO 64BDCRBNPEH
# T1 sequence (Q96SW2 whole entry): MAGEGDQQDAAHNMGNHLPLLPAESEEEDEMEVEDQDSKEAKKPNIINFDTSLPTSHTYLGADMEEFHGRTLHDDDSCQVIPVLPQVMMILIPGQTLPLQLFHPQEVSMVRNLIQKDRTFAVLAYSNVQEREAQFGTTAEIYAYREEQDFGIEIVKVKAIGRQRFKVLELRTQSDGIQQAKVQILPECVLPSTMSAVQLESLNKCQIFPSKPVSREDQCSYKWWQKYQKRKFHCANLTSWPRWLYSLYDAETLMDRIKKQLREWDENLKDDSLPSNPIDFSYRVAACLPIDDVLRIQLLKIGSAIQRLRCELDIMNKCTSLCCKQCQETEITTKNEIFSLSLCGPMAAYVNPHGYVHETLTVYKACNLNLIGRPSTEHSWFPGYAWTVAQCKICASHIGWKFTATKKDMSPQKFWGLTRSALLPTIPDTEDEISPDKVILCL
# Experimental: The CEREBLON BINDING kits (specification: 10,000 tests; product number: Catalog #64BDCRBNPEH; CISBIO company) was used to determine the CRBN binding ability of the compounds to be tested through a HTRF method (homogeneous time-resolved fluorescence). The specific methods are as follows: • 1. […] Then, 2.5 μL of human Cereblon WT GST-tagged protein solution was added to each well. Finally, 5 μL of the thoroughly mixed Thalidomide-Re reagent and GST Eu antibody working solution were added to each of the aforementioned wells. […] The blank control wells were sequentially added with 2.5 μL of diluent #9 (1×) solution, 2.5 μL of PROTAC binding buffer, and 5 μL of thoroughly mixed Thalidomide-Re reagent and GST Eu antibody working solution. • 4.
# OD 620 nmcompound is the absorbance value of each well of the compounds to be tested of the present disclosure at an emission wavelength of 620 nm. […] OD 620 nmcontrol is the absorbance value of the blank control well at an emission wavelength of 620 nm. […] OD 620 nmStd0 is the absorbance value of the solvent control well at an emission wavelength of 620 nm.
# [2] = target: T2, Wee1 (Homo sapiens, UniProt P30291+Q96SW2); test: Western-blot assay, substrate protein in hPBMCs; type: cell-based; details: hPBMC cells, 24 hours, tested at 50 nM and 500 nM, table does not say which
# T2 construct: endogenous in cells; host or cells: human PBMCs (Milecell Biotechnologies)
# T2 sequence (P30291 whole entry): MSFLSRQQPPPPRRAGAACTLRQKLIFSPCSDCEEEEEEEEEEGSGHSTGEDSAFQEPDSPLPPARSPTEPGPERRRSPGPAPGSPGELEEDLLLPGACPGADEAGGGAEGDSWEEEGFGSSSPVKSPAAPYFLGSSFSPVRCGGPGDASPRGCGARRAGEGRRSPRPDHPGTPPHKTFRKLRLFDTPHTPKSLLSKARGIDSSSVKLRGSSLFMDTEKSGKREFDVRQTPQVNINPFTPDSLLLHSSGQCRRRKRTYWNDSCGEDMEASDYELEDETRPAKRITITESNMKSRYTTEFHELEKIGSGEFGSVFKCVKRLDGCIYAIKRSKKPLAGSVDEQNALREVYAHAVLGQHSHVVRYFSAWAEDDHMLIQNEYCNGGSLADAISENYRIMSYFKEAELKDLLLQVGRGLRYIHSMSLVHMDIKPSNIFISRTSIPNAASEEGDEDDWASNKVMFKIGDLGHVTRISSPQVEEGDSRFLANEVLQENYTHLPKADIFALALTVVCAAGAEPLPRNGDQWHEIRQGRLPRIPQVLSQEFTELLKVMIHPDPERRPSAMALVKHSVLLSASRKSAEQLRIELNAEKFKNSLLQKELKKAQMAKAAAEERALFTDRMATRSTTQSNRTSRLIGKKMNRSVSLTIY
# T2 sequence (Q96SW2 whole entry): as the sequence (Q96SW2 whole entry) above
# T2 sequence (Q16531 whole entry partner): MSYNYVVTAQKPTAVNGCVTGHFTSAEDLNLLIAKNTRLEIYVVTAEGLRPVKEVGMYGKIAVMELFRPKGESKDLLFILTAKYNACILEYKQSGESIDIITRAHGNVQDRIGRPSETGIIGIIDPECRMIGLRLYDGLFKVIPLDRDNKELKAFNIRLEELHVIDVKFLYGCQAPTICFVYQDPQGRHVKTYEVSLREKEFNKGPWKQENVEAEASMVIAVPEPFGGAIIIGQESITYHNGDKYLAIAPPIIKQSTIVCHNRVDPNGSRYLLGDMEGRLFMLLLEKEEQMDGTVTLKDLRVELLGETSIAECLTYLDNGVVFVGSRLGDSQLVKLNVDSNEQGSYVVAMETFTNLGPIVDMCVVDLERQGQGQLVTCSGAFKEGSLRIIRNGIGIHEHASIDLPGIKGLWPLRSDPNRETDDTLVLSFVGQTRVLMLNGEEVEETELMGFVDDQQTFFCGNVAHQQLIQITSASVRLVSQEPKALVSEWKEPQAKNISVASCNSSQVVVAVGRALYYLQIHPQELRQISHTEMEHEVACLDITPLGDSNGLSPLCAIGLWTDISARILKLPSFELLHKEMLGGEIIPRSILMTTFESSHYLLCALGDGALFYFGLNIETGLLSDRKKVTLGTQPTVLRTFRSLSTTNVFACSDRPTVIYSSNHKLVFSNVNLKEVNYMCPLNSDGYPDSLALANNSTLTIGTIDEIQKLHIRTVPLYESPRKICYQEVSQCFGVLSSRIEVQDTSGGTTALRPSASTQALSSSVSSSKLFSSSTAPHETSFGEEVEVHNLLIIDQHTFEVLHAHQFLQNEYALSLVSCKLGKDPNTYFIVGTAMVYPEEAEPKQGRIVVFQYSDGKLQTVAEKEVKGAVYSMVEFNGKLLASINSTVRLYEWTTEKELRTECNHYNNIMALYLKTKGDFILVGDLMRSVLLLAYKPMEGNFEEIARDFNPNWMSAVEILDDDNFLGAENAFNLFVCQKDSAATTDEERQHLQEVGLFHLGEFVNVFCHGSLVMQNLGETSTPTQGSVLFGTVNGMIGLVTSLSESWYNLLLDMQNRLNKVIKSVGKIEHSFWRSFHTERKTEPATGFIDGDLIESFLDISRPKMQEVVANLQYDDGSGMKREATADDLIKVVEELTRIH
# Experimental: (§1) The effect of the compounds of the present disclosure on the expression of target proteins in cells was detected using conventional Western blot analysis.
# (§2) Human peripheral blood mononuclear cells (hPBMCs) at a density of 1×10^6 cells/mL were thawed according to the PBMC Recovery Protocol (Milecell Biotechnologies Inc, Shanghai).
# (§3) After 24 hours of compounds treatment, cells were harvested and lysed in RIPA protein lysate containing phosphatase inhibitors on ice for 30-60 min, followed by centrifugation. The supernatant was aspirated as the extracted total cell protein. The protein concentration of the supernatant was determined using the conventional BCA (Bicinchoninic Acid) assay. The supernatant was then mixed with 4× SDS sample loading buffer, denatured at 95° C. for 5 minutes, and then subjected to SDS-PAGE electrophoresis on a polyacrylamide gel. Proteins were then transferred to a nitrocellulose (NC) membrane, blocked at room temperature for 1-2 h, and processed for antibody incubation and detection according to the manufacturer's instructions (Cell Signaling Technology).
# (§4) Half-Maximal Degradation Concentration value (the drug concentration required for degrading proteins by 50%, abbreviated as DC50) reads method: comparing the grayscale values of Western blot bands from drug-treated samples with those from blank DMSO-treated controls, and identifying the drug concentration range at which the grayscale value is half that of the DMSO-treated control bands.
# (§5) DC50 values can be calculated using ImageJ software to measure grayscale values of Western blot bands from drug-treated samples. The concentration-response curve is fitted to estimate the drug concentration corresponding to half the grayscale value.
# (§6) Target protein remaining (%) refers to the percentage of target protein remaining in hPBMC cells after treatment with protein degrader compounds.
# (§7) Calculation method for protein remaining (%): Use ImageJ software to measure grayscale values of Western blot bands from drug (protein degrader)-treated samples. The grayscale value of drug-treated bands is divided by that of internal control protein bands, and the resulting quotient is normalized to obtain the relative percentage of remaining target protein after protein degrader treatment.
# (§8) Target protein degradation rate (%)=100%−target protein remaining (%).
# [3] = target: T3, GSPT1 (Homo sapiens, UniProt P15170+Q96SW2); test: Western-blot assay, substrate protein in hPBMCs; type: cell-based; details: hPBMC cells, 24 hours, tested at 50 nM and 500 nM, table does not say which
# T3 construct: endogenous in cells; host or cells: human PBMCs (Milecell Biotechnologies)
# T3 sequence (P15170 whole entry): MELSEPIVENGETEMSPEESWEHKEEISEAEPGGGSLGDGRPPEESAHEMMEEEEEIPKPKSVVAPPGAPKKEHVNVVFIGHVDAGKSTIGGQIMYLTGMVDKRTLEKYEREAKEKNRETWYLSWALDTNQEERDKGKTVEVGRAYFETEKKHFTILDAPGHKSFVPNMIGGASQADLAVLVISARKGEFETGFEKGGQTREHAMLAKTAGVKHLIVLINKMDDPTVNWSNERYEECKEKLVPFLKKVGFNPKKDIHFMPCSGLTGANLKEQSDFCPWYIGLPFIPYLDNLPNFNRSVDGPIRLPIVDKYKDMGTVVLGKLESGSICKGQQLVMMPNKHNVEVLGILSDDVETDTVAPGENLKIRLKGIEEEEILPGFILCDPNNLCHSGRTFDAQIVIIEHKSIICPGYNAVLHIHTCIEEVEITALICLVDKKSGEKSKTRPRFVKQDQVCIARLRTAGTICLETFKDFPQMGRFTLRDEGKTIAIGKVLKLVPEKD
# T3 sequence (Q96SW2 whole entry): as the sequence (Q96SW2 whole entry) above
# T3 sequence (Q16531 whole entry partner): as the sequence (Q16531 whole entry partner) above
# Experimental: as §1, §2, §3, §4, §5, §6, §7, §8
IC50 [1] [µM],Compound,substrate protein remaining % [2],substrate protein remaining % [3]
< 0.5,"CC1(C)CCC(C(=O)N2C[C@H]3CC(Oc4ccc5c(c4)CN(C4CCC(=O)NC4=O)C5=O)C[C@H]3C2)=C(c2ccc(Cl)cc2)C1 (stereo partly drawn) [GT-07019, 3-(5-(((3aR,6aS)-2-(4′-chloro-5,5-dimethyl-3,4,5,6-tetrahydro-[1,1′-biphenyl]-2-carbonyl)octahydro-cyclopenta[c]pyrrol-5-yl)oxy)-1-oxoisoindolin-2-yl)piperidine-2,6-dione]",A (0%≤ substrate protein remaining % ≤80%),
< 0.5,"CC1(C)CCC(C(=O)N2CCCC(Oc3ccc4c(c3)CN(C3CCC(=O)NC3=O)C4=O)CC2)=C(c2ccc(Cl)cc2)C1 (stereo not shown) [GT-07018, 3-(5-((1-(4′-chloro-5,5-dimethyl-3,4,5,6-tetrahydro-[1,1′-biphenyl]-2-carbonyl)azepan-4-yl)oxy)-1-oxoisoindolin-2-yl)piperidine-2,6-dione]",,
1 to 1.9,"O=C1CCC(N2Cc3cc(SC4CCC5(CCNCC5)CC4)ccc3C2=O)C(=O)N1 (stereo not shown) [GT-06998, 3-(5-((3-azaspiro[5.5]undecan-9-yl)thio)-1-oxoisoindolin-2-yl)piperidine-2,6-dione]",,
0.5 to 1,"O=C1CCC(N2Cc3cc(SC4CCNCC4(F)F)ccc3C2=O)C(=O)N1 (stereo not shown) [GT-06999, 3-(5-((3,3-difluoropiperidin-4-yl)thio)-1-oxoisoindolin-2-yl)piperidine-2,6-dione]",,
< 0.5,"O=C1CCC(N2Cc3c(OC4CNC4)cccc3C2=O)C(=O)N1 (stereo not shown) [GT-07000, 3-(4-(azetidin-3-yloxy)-1-oxoisoindolin-2-yl)piperidine-2,6-dione]",,
1 to 1.9,"CC1(C)CCC(C(=O)N2CCC(Sc3ccc4c(c3)CN(C3CCC(=O)NC3=O)C4=O)C(F)(F)C2)=C(c2ccc(Cl)cc2)C1 (stereo not shown) [GT-07017, 3-(5-((1-(4′-chloro-5,5-dimethyl-3,4,5,6-tetrahydro-[1,1′-biphenyl]-2-carbonyl)-3,3-difluoropiperidin-4-yl)thio)-1-oxoisoindolin-2-yl)piperidine-2,6-dione]",,
< 0.5,"O=C1CCC(N2Cc3cc(SC4C[C@@H]5CN(C(=O)c6ccccc6-c6ccc(Cl)cc6)C[C@H]5C4)ccc3C2=O)C(=O)N1 (stereo partly drawn) [GT-07023, 3-(5-(((3aS,6aS)-2-(4′-chloro-[1,1′-biphenyl]-2-carbonyl)octahydro-cyclopenta[c]pyrrol-5-yl)thio)-1-oxoisoindolin-2-yl)piperidine-2,6-dione]",A (0%≤ substrate protein remaining % ≤80%),
1 to 1.9,"O=C1CCC(N2Cc3cc(OC4CC5CNCC5C4)ccc3C2=O)C(=O)N1 (stereo not shown) [GT-07004, 3-(5-((octahydrocyclopenta[c]pyrrol-5-yl)oxy)-1-oxoisoindolin-2-yl)piperidine-2,6-dione]",,
1 to 1.9,"O=C1CCC(N2Cc3ccc(SC4CNC4)cc3C2=O)C(=O)N1 (stereo not shown) [GT-06993, 3-(6-(azetidin-3-ylthio)-1-oxoisoindolin-2-yl)piperidine-2,6-dione]",,
1 to 1.9,"O=C1CCC(N2Cc3cc(SC4CC5CNCC5C4)ccc3C2=O)C(=O)N1 (stereo not shown) [GT-06996, 3-(5-((octahydrocyclopenta[c]pyrrol-5-yl)thio)-1-oxoisoindolin-2-yl)piperidine-2,6-dione]",,

# More lines, now with the values behind:
Compound,IC50 [1] [µM],substrate protein remaining % [2],substrate protein remaining % [3]
"O=C1CCC(N2Cc3cc(SC4CN(C(c5ccccc5)c5cccnc5)C4)ccc3C2=O)C(=O)N1 (stereo not shown) [GT-06807, 3-(1-oxo-5-((1-(phenyl(pyridin-3-yl)methyl)azetidin-3-yl)thio)isoindolin-2-yl)piperidine-2,6-dione]",< 0.5,,
"O=C1CCC(N2Cc3cc(OC4CN(C(c5ccc(Cl)cc5)c5ccc(Cl)cc5)C4)ccc3C2=O)C(=O)N1 (stereo not shown) [GT-06520, 3-(5-((1-(bis(4-chlorophenyl)methyl)azetidin-3-yl)oxy)-1-oxoisoindolin-2-yl)piperidine-2,6-dione]",1 to 1.9,,A (0%≤ substrate protein remaining % ≤80%)
"COc1ccc(C(c2ccc(OC)cc2)N2CC(Sc3ccc4c(c3)CN(C3CCC(=O)NC3=O)C4=O)C2)cc1 (stereo not shown) [GT-06923, 3-(5-((1-(bis(4-methoxyphenyl)methyl)azetidin-3-yl)thio)-1-oxoisoindolin-2-yl)piperidine-2,6-dione]",< 0.5,,
"O=C1CCC(N2Cc3c(SC4CNC4)cccc3C2=O)C(=O)N1 (stereo not shown) [GT-06992, 3-(4-(azetidin-3-ylthio)-1-oxoisoindolin-2-yl)piperidine-2,6-dione]",0.5 to 1,,
"O=C1CCC(N2Cc3cc(SC4CN(C(c5ccc(Cl)cc5)c5ccc(Cl)cc5)C4)ccc3C2=O)C(=O)N1 (stereo not shown) [GT-06504, 3-(5-((1-(bis(4-chlorophenyl)methyl)azetidin-3-yl)thio)-1-oxoisoindolin-2-yl)piperidine-2,6-dione]",0.5 to 1,,
"O=C1CCC(N2Cc3cc(SC4CCN(Cc5ccccc5-c5ccc(Cl)cc5)C4)ccc3C2=O)C(=O)N1 (stereo not shown) [GT-04195, 3-(5-((1-((4′-chloro-[1,1′-biphenyl]-2-yl)methyl)pyrrolidin-3-yl)thio)-1-oxoisoindolin-2-yl)piperidine-2,6-dione]",1 to 1.9,,
"O=C1CCC(N2Cc3cc(OC4CN(C(=O)c5ccccc5-c5ccc(Cl)cc5)C4)ccc3C2=O)C(=O)N1 (stereo not shown) [GT-06183, 3-(5-((1-(4′-chloro-[1,1′-biphenyl]-2-carbonyl)azetidin-3-yl)oxy)-1-oxoisoindolin-2-yl)piperidine-2,6-dione]",< 0.5,A (0%≤ substrate protein remaining % ≤80%),
"O=C1CCC(N2Cc3cc(OC4CCCNCC4)ccc3C2=O)C(=O)N1 (stereo not shown) [GT-07003, 3-(5-(azepan-4-yloxy)-1-oxoisoindolin-2-yl)piperidine-2,6-dione]",,A (0%≤ substrate protein remaining % ≤80%),
"O=C1CCC(N2Cc3cc(SC4CCNC4)ccc3C2=O)C(=O)N1 (stereo not shown) [GT-04309, 3-(1-oxo-5-(pyrrolidin-3-ylthio)isoindolin-2-yl)piperidine-2,6-dione]",,,A (0%≤ substrate protein remaining % ≤80%)
"CC1(C)CCC(C(=O)N2CCC(Sc3ccc4c(c3)CN(C3CCC(=O)NC3=O)C4=O)C2)=C(c2ccc(Cl)cc2)C1 (stereo not shown) [GT-06139, 3-(5-((1-(4′-chloro-5,5-dimethyl-3,4,5,6-tetrahydro-[1,1′-biphenyl]-2-carbonyl)pyrrolidin-3-yl)thio)-1-oxoisoindolin-2-yl)piperidine-2,6-dione]",0.5 to 1,,
"O=C1CCC(N2Cc3cc(OC4CNC4)ccc3C2=O)C(=O)N1 (stereo not shown) [GT-03614, 3-(5-(azetidin-3-yloxy)-1-oxoisoindolin-2-yl)piperidine-2,6-dione]",,A (0%≤ substrate protein remaining % ≤80%),
"CC1(C)CCC(CN2CC(Sc3ccc4c(c3)C(=O)N(C3CCC(=O)NC3=O)C4)C2)=C(c2ccc(Cl)cc2)C1 (stereo not shown) [GT-06757, 3-(6-((1-((4′-chloro-5,5-dimethyl-3,4,5,6-tetrahydro-[1,1′-biphenyl]-2-yl)methyl)azetidin-3-yl)thio)-1-oxoisoindolin-2-yl)piperidine-2,6-dione]",1 to 1.9,,
"O=C1CCC(N2Cc3cc(SC4CN(CC5=C(c6ccc(F)cc6)CCOC5)C4)ccc3C2=O)C(=O)N1 (stereo not shown) [GT-06513, 3-(5-((1-((4-(4-fluorophenyl)-5,6-dihydro-2H-pyran-3-yl)methyl)azetidin-3-yl)thio)-1-oxoisoindolin-2-yl)piperidine-2,6-dione]",< 0.5,,A (0%≤ substrate protein remaining % ≤80%)
"O=C1CCC(N2Cc3cc(SC4CCCN(C(=O)c5ccccc5-c5ccc(Cl)cc5)CC4)ccc3C2=O)C(=O)N1 (stereo not shown) [GT-06644, 3-(5-((1-(4′-chloro-[1,1′-biphenyl]-2-carbonyl)azepan-4-yl)thio)-1-oxoisoindolin-2-yl)piperidine-2,6-dione]",< 0.5,,A (0%≤ substrate protein remaining % ≤80%)
"O=C1CCC(N2Cc3cc(SC4CN(Cc5ccc(-c6ccco6)s5)C4)ccc3C2=O)C(=O)N1 (stereo not shown) [GT-06517, 3-(5-((1-((5-(furan-2-yl)thiophen-2-yl)methyl)azetidin-3-yl)thio)-1-oxoisoindolin-2-yl)piperidine-2,6-dione]",< 0.5,,
